Source: patent US6465395B2, “Substituted methylene pyrazolinones and the herbicidal use thereof” (BASF Aktiengesellschaft, priority 2000, dated 2002)

Key:
Assay in all cases: Postemergence herbicidal evaluation
Type in all cases: in vivo
Parameters in all cases: scale not given here
[1] = test system: ABUTH, Velvetleaf, Abutilon theophrasti, Medic.
Protocol: (§1) The postemergence herbicidal activity of the compounds of the present invention is evaluated by the following tests. Seedling plants are grown in jiffy flats for about two weeks. The test compounds are dispersed in 80/20 (v/v) acetone/water mixtures containing 1.0% SUN-IT®II, a methylated seed oil, in sufficient quantities to provide the equivalent of about 0.006 kg/ha to 0.800 kg/ha of active compound when applied to the plants through a spray nozzle operating at 40 psi for a predetermined time. After spraying, the plants are placed on greenhouse benches and are cared for in accordance with conventional greenhouse procedures. Approximately two to three weeks after treatment, the seedling plants are examined and rated according to the rating system set forth below. Where more than one test is involved for a given compound, the data are averaged.

[2] = test system: PANDI, Panicum, Fall, Panicum dichotomiflorum, Michx
Protocol: as §1

[3] = test system: SETVI, Foxtail, Green, Setaria viridis, (L.) Beau
Protocol: as §1

[4] = test system: ORYSAT, Rice, Tebonnet, Oryza sativa, (L.) Tebonnet; conditions: crop (rice)
Protocol: as §1

[5] = test system: AMBEL, Ragweed, Ambrosia artemisifolia, L.
Protocol: as §1

[6] = test system: ECHCG, Barnyardgrass, Echinochloa crus-galli, (L.) Beau
Protocol: as §1

[7] = test system: IPOSS, Morningglory spp., Ipomoea spp.
Protocol: as §1

[8] = test system: ZEAMX, Corn, Field, Zea mays, L.; conditions: crop (corn)
Protocol: as §1

[9] = test system: CHEAL, Lambsquarters, Chenopodium album, L.
Protocol: as §1

Compound | Herbicide rating ABUTH ([1]; 0.0125 kg/ha) | Herbicide rating ABUTH ([1]; 0.0250 kg/ha) | Herbicide rating ABUTH ([1]; 0.0500 kg/ha) | Herbicide rating ABUTH ([1]; 0.1000 kg/ha) | Herbicide rating SETVI ([3]; 0.0125 kg/ha) | Herbicide rating SETVI ([3]; 0.0250 kg/ha) | Herbicide rating SETVI ([3]; 0.0500 kg/ha) | Herbicide rating SETVI ([3]; 0.1000 kg/ha) | Herbicide rating AMBEL ([5]; 0.0125 kg/ha) | Herbicide rating AMBEL ([5]; 0.0250 kg/ha) | Herbicide rating AMBEL ([5]; 0.0500 kg/ha) | Herbicide rating AMBEL ([5]; 0.1000 kg/ha) | Herbicide rating ECHCG ([6]; 0.0125 kg/ha) | Herbicide rating ECHCG ([6]; 0.0250 kg/ha) | Herbicide rating ECHCG ([6]; 0.0500 kg/ha) | Herbicide rating ECHCG ([6]; 0.1000 kg/ha) | Herbicide rating ZEAMX ([8]; 0.0125 kg/ha) | Herbicide rating ZEAMX ([8]; 0.0250 kg/ha) | Herbicide rating ZEAMX ([8]; 0.0500 kg/ha) | Herbicide rating ZEAMX ([8]; 0.1000 kg/ha) | other results
4,4′-[(Z,Z)-Dithiobis[(2,3-dihydro-3,3,4-trimethylbenzo[b]thien-5-yl)methylidyne]]bis[1-methyl-2-pyrazolin-5-one] S,S,S′,S′,-tetraoxide, 80:20 mixture with 4,4′-[(E,Z)-dithiobis[(2,3-dihydro-3,3,4-trimethyl-benzo[b]thien-5-yl)methylidyne]]bis[1-methyl-2-pyrazolin-5-one] S,S,S′,S′-tetraoxide [Example 7] | 3.0 | 4.0 | 5.0 | 7.0 | 7.0 | 7.0 | 9.0 | 9.0 | 4.0 | 7.0 | 9.0 | 9.0 | 7.0 | 7.0 | 8.0 | 9.0 | 0.0 | 0.0 | 0.0 | 2.0 | Herbicide rating PANDI ([2]; 0.0125 kg/ha): 5.0; Herbicide rating PANDI ([2]; 0.0250 kg/ha): 3.0; Herbicide rating PANDI ([2]; 0.0500 kg/ha): 7.0; Herbicide rating PANDI ([2]; 0.1000 kg/ha): 9.0; Herbicide rating ORYSAT ([4]; 0.0125 kg/ha): 3.5; Herbicide rating ORYSAT ([4]; 0.0250 kg/ha): 6.0; Herbicide rating ORYSAT ([4]; 0.0500 kg/ha): 7.0; Herbicide rating ORYSAT ([4]; 0.1000 kg/ha): 7.0; Herbicide rating IPOSS ([7]; 0.0125 kg/ha): 1.0; Herbicide rating IPOSS ([7]; 0.0250 kg/ha): 1.0; Herbicide rating IPOSS ([7]; 0.0500 kg/ha): 2.0; Herbicide rating IPOSS ([7]; 0.1000 kg/ha): 2.0
Cc1c(C(=C2C=NN(C)C2=O)N(C)C)ccc2c1C(C)(C)CS2(=O)=O [Example 2, 4-[(Z)-(2,3-Dihydro-3,3,4-trimethylbenzo[b]thien-5-yl)(dimethylamino)methylene]-1-methyl-2-pyrazolin-5-one S,S-dioxide] | 0.0 | 0.0 | 0.0 | 0.0 | 0.0 | 0.0 | 0.0 | 0.0 | 0.0 | 0.0 | 0.0 | 0.0 | 0.0 | 0.0 | 0.0 | 0.0 | 0.0 | 0.0 | 0.0 | 0.0 | Herbicide rating CHEAL ([9]; 0.0125 kg/ha): 0.0; Herbicide rating CHEAL ([9]; 0.0250 kg/ha): 0.0; Herbicide rating CHEAL ([9]; 0.0500 kg/ha): 0.0; Herbicide rating CHEAL ([9]; 0.1000 kg/ha): 0.0
COc1ccc(OC(=C2C=NN(C)C2=O)c2ccc3c(c2C)C(C)(C)CS3(=O)=O)cc1 [Example 3, 4-[(Z)-(2,3-Dihydro-3,3,4-trimethylbenzo-[b]thien-5-yl)(p-methoxyphenoxy)methylene]-1-methyl-2-pyrazolin-5-one, S,S-dioxide] | 2.0 | 4.0 | 7.0 | 7.0 | 1.0 | 3.0 | 5.0 | 7.0 | 2.0 | 4.0 | 7.0 | 7.0 | 2.0 | 3.0 | 4.0 | 6.0 | 0.0 | 0.0 | 0.0 | 2.0 | Herbicide rating CHEAL ([9]; 0.0125 kg/ha): 6.0; Herbicide rating CHEAL ([9]; 0.0250 kg/ha): 6.0; Herbicide rating CHEAL ([9]; 0.0500 kg/ha): 8.0; Herbicide rating CHEAL ([9]; 0.1000 kg/ha): 9.0
